These results are taken from patent publication US11382914B2, “Usage and dosage of therapeutic agents for endometriosis” (KISSEI PHARMACEUTICAL CO., LTD., priority 2016, dated 2022).

Data set [1] concerns patients with endometriosis. Particulars: for Changes in average NRS for pelvic pain (regardless of menstruation) between the pre-treatment period and the time of the final assessment during treatment: oral once a day for 12 weeks. The protocol: Clinical Trial 1 in Patients with Endometriosis (Double-Blind Parallel-Group Comparison Study)
To 107 patients with endometriosis, Compound 2 at a dose of 50 mg (29 patients), 100 mg (26 patients) or 200 mg (28 patients) or a placebo (24 patients) was orally administered after breakfast once a day for 12 weeks. These groups are hereinafter referred to as a 50-mg administration group, a 100-mg administration group, a 200-mg administration group, and a placebo group. The administration was started from the second to fifth days of menstruation.
As evaluation scales for safety, for example, the occurrence of an adverse event, the occurrence of a side effect, and vaginal bleeding were evaluated.

For data set [2], the system named is patients with endometriosis. Particulars: for Changes in average NRS for pelvic pain (regardless of menstruation) between the pre-treatment period and the time of final assessment during the treatment period: oral once a day for 8 weeks. The protocol:
Clinical Trial 2 in Patients with Endometriosis (Randomized Non Blind Parallel-Group Comparison Study)
To 21 patients with endometriosis, Compound 2 was administered orally at a dose of 75 mg (11 patients) or 150 mg (10 patients) after breakfast once a day for 8 weeks. These groups are hereinafter referred to as a 75-mg administration group and a 150-mg administration group. The administration was started from the second to fifth days of menstruation.

For data set [3] the following is noted: long-term study; cited from earlier work.

Read-outs that look alike come from different tables or passages of the source.

As to “3-[2-fluoro-5-(2,3-difluoro-6-methoxybenzyloxy)-4-methoxyphenyl]-2,4-dioxo-1,2,3,4-tetrahydrothieno[3,4-d]pyrimidine-5-carboxylic acid choline salt [Compound 2]”, the results for the “Percentage of patients who had menstruation during treatment (Yes)” value in data set [1] (50 mg), in data set [1] (100 mg) and in data set [1] (200 mg) were 72.4%, 26.9% and 3.6%, respectively. Also, the “Percentage of patients who had no menstruation during treatment (No)” value in data set [1] (50 mg) worked out at 27.6%; in data set [1] (100 mg), 73.1%; in data set [1] (200 mg), 96.4%. The “Number of cases where side effects associated with hypoestrogenism (hot flashes, headache, dizziness, hyperhidrosis) were developed” value came out at 9 in data set [1] (50-mg administration group (29 patients)), 12 in data set [1] (100-mg administration group (26 patients)) and 28 in data set [1] (200-mg administration group (28 patients)). For the same compound, the “Changes in average NRS for pelvic pain (regardless of menstruation) between the pre-treatment period and the time of the final assessment during treatment” value in data set [1] (50-mg administration group) is −1.13; in data set [1] (100-mg administration group) it was −1.27; in data set [1] (200-mg administration group), −1.33. In addition, the “E2 concentrations during treatment” value in data set [1] (100-mg administration group) and in data set [1] (200-mg administration group) was “lower than 20 pg/mL” each time. Also, the “E2 secretion during treatment” value in data set [1] (all groups (50, 100, 200 mg)) is “Suppression of E2 secretion was observed”. Besides, in data set [1] (all groups (50, 100, 200 mg) vs placebo), the “Improvement of average NRS for pelvic pain as compared to the placebo group” value is on record as “Significant improvements”. Further, the “Temporal pain, observations by others, use rate of an analgesic agent, sizes of an ovarian chocolate cyst and the uterus, as compared to the placebo group” value in data set [1] (groups administered 50, 100, 200 mg vs placebo) is listed as “improved”. The “Occurrence of side effects associated with hypoestrogenism” value in data set [1] (groups with E2 concentration of 20 pg/mL and/or more during treatment) was 28.2%; in data set [1] (groups with E2 concentration of less than 20 pg/mL during treatment), 54.8%. For the same compound, the figures for the “Changes in average NRS for pelvic pain (regardless of menstruation) between the pre-treatment period and the time of final assessment during the treatment period” value in data set [2] (75-mg administration group) and in data set [2] (150-mg administration group) were −0.94 and −1.68, respectively. Moreover, the “Median E2 concentrations during treatment” value is 35 pg/mL in data set [2] (75-mg administration group, week 4); 24 pg/mL in data set [2] (75-mg administration group, week 8); 10 pg/mL in data set [2] (150-mg administration group, week 4); 10 pg/mL in data set [2] (150-mg administration group, week 8). Moreover, the “Improvement of average NRS for pelvic pain” value in data set [2] (all groups (75, 150 mg)) is listed as “tendency of improvement”.

In the case of `C[C@]12CCC3=C4CCC(=O)C=C4CC[C@H]3[C@@H]1CC[C@@]2(O)CC#N` [Dienogest, dienogest], in data set [3], the “Incidence of atypical genital bleeding as a side effect” value is recorded as 71.9%.
